Laboratory results from US9914910B2, “Methods of preserving and protecting pancreatic beta cells and treating or preventing diabetes by inhibiting NOX-1” (Eastern Virginia Medical School, priority 2013, dated 2018).

Experiments:
INS-1 cells = test: ROS measurement (DCF-DA) after pro-inflammatory cytokine cocktail (PIC); format: cell-based, rat
Procedure: INS-1 cells were cultured in RPMI-1640 media (Life Technologies, Grand Island, N.Y.) supplemented with 10% fetal calf serum, 1% penicillin/streptomycin, 10 mM Hepes, 2 mM Lglutamine, 1 mM sodium pyruvate, and 0.05 mM 2-mercaptoethanol at 370 C with 5% CO2.
Cells treated for 1 hour were then washed with PBS prior to addition of 10 μM 6-Carboxy-2′,7′-Dichlorodihydrofluorescein Diacetate, Di(Acetoxymethyl ester) (DCF-DA, Life Technologies) for 30 min at 370 C. Post PBS wash cells were incubated at 370 C for 1 hour. Prior to fluorescence measurement (SpectraMax Molecular Devices, Sunnyvale, Calif.) at excitation 480 nm: emission 530 nm.
Elevation of cellular ROS in beta-cell lines INS-1 (rat beta-cell line) and βTC-3 (mouse beta-cell line) was evaluated by conversion of fluorescent substrate DCF-DA. Following one hour stimulation with a pro-inflammatory cytokine cocktail (PIC; IL-1β, TNF-α, and IFN-γ) detectable ROS elevated from control levels of 0.05±0.02 and 0.09±0.03 (INS-1 and βTC-3 respectively) to 0.25±0.04 and 0.23±0.03 (INS-1 and βTC-3 respectively). This increase was significant p<0.05 and p<0.01 (INS-1 and βTC-3 respectively).

βTC-3 cells [1] = test: Caspase-3 assay (pro-caspase-3 cleavage) after PIC; format: cell-based, mouse; conditions: βTC-3, PIC 4 hours, up to
Procedure: A. Caspase-3 Assay: Pro-caspase-3 cleavage was measured using a caspase-3 Assay kit (BD Pharmigen, Franklin Lakes, N.J.) per the manufacturer's instructions; fluorescence being measured (SpectraMax, Molecular Devices, Sunnyvale, Calif.) at excitation 380 nm and emission 440 nm (INS-1) or 460 nm (βTC-3, mouse).

beta cells = test: Pro-caspase 3 cleavage after PIC, beta cell survival; format: cell-based; conditions: C1 100 nM, ML171 10 μM
Procedure: Loss of beta cell viability in response to inflammatory cytokines was assessed by measurement of caspase 3 activation and quantified microscopy. […] Measured by pro-caspase 3 cleavage (A) or quantified microscopy of YO-PRO-1 stained cells (B). […] Shown are RFU from fluorescent capase3 substrate, ##p<0.01 relative to control; *p<0.05; **p<0.01 relative to PIC (A) and Microscopic apoptotic index ###p<0.001 relative to control; ***p<0.001; **p<0.01 relative to PIC (B).

βTC-3 cells [2] = test: Apoptosis by YO-PRO-1 fluorescence microscopy after PIC; format: cell-based, mouse; conditions: βTC-3, PIC 24 hours, p<0.001
Procedure: B. Fluorescence microscopy: Stimulated cells or islets were washed in cold PBS, and incubated for 30 mins at 40 C with cold PBS containing 1 μg/mL propidium iodide and 0.1 μM YO-PRO-1 (Life Technologies). For cell lines, five randomly fields per well were analyzed. For islets, all islets (>1000 um2 in size) were analyzed. Densitometric fluorescent value for YO-PRO-1 (green channel) was normalized to background and expressed proportional to cell occupied area (phase contrast). Images captured across three channels with Axiophot (Zeiss, Jena, Germany) with Axiovision (Zeiss) image analysis.

[3] = system: NOX-1 gene expression in primary human donor islets; test: PIC-induced NOX-1 gene expression (RT-PCR); format: cell-based; conditions: 1 μM ML171
Procedure: (§1) Total RNA was isolated using the RNeasy Mini Kit (Qiagen, Valencia, Calif.) and cDNA prepared using MMLV reverse transcriptase (Life Technologies) and random hexamers (Life Technologies). Jump Start Taq polymerase (Life Technologies) was used in PCR reactions. […] RT-PCR reactions were performed in triplicate (CFX96 Bio-Rad, Hercules, Calif.). Taqman primers (Life Technologies) were also used. Data was normalized to the housekeeping gene GAPDH and analyzed using the 2-ΔΔCT method.

[4] = system: NOX-1 protein in INS-1 cells; test: NOX-1 protein expression (western blot); format: cell-based; conditions: Rattus norvegicus, INS1, 24 h; read-out: inhibition of PIC induction of NOX-1 protein
Procedure: (§2) Cells were then lysed (1× PBS, 1% Triton X-100, 1 mM PMSF, 1 mM Halt Protease Inhibitor Cocktail (Pierce, Rockford, Ill.), 1 mM NaVO4), and incubated on ice for 20 min. Cleared (14,000 rpm, 15 min, 4° C.) lysate was collected. Proteins separated on 10% Tris-glycine gels (Life Technologies) were transferred onto PDVF (Immobilon-FL, Millipore, Billerca, Mass.). Membranes were blocked in TBS/0.05% Tween (Sigma) plus 5% non-fat milk (Bio-Rad) for 1 hr at room temperature before incubation overnight at 40 in primary antibody with gentle shaking. The membrane was washed between antibody cycles four times for 5 min each in TBS/Tween (0.05%). Primary antibodies: 1:250 Anti-NOX-1 or 1:1000 β-actin 1 (Abcam, Cambridge, Mass.).
(§3) Signal detected with 1:2000 HRP-secondary antibody for 1 hour (GE Healthcare, Buckinghamshire, UK) SuperSignal Chemiluminescent Substrate (Thermo Scientific, Rockford, Ill.) on a ChemiDoc XRS System (Bio-Rad). Densitometry was determined using Image J (http://rsb-web.nih.gov/i/).

[5] = system: NOX-1 protein in βTC-3 cells; test: NOX-1 protein expression (western blot); format: cell-based; conditions: Mus musculus, 24 h; read-out: inhibition of PIC induction of NOX-1 protein
Procedure: as §2, §3

[6] = system: NOX-1 protein in piglet islets; test: PIC-induced NOX-1 protein in piglet islets; format: cell-based; conditions: 1 μM, 18 hours
Procedure: The methods disclosed herein may also be utilized in the preparation of viable xenotransplantable porcine islets and/or the treatment of a mammalian patient (including humans) suffering from diabetes involving the transplantation into the mammal of viable porcine islets capable of producing insulin within the host. Piglet islets are candidates for xenotransplantation of piglet islets with cytokines (PIC; TNF, IL-1, IFN) induced expression of NOX-1 protein. […] Islets were treated for 18 hours. Data supports feedforward regulation of NOX-1 expression and effective uncoupling of this pathway in piglet islets by inhibition of NOX-1 activity.

[7] = system: MCP-1, IL-12p40, IL-12 p35, IFNγ gene expression in primary mouse islets; test: Cytokine-induced target gene expression (real time PCR); format: cell-based; conditions: NCTT-1 100 nM, ML171 1 μM
Procedure: as §1
Data is quantitative real time PCR gene expression analysis from triplicate experiments performed in replicate. Fold induction in gene expression over control (non cytokine-treated) islets is graphed.

CC(=O)c1ccc2c(c1)Nc1ccccc1S2 [ML171, 2-acetylphenothiazine]
inhibition of PIC-induced ROS (DCFDA conversion) (INS-1 cells; INS-1, PIC 1 hour): dose dependent inhibition
concentration of maximal protection from PIC-induced ROS (INS-1 cells; analogous results for INS-1 and βTC-3): 10 µM
block of PIC-induced activation of caspase-3 (βTC-3 cells [1]): ≤ 97%±3.1%
inflammatory cytokine-induced cell death, pro-caspase 3 cleavage (beta cells): significantly protected
PIC-induced apoptosis (YO-PRO-1) (βTC-3 cells [2]): apoptosis was significantly decreased
inhibition of PIC-induced expression of NOX-1 [3]: 50%
inhibition at 1 µM [4]: 100%
inhibition at 1 µM [5]: 100%
PIC-induced NOX-1 protein [6]: reduces PIC-induced NOX-1 protein
induction of gene IFNγ by PIC [7]: attenuated
induction of gene IL-12 p35 by PIC [7]: attenuated
induction of gene IL-12p40 by PIC [7]: attenuated
induction of gene MCP-1 by PIC [7]: attenuated
